Molecules are shown by their SMILES. Where only a bound is given, the exact number is not on record here.

The target of one data set is T1, CYP1A2 (Homo sapiens, UniProt P05177).
T1 construct: enzyme, pooled human hepatic microsome 0.2 mg protein/mL; from tissue
T1 sequence (P05177 1-516): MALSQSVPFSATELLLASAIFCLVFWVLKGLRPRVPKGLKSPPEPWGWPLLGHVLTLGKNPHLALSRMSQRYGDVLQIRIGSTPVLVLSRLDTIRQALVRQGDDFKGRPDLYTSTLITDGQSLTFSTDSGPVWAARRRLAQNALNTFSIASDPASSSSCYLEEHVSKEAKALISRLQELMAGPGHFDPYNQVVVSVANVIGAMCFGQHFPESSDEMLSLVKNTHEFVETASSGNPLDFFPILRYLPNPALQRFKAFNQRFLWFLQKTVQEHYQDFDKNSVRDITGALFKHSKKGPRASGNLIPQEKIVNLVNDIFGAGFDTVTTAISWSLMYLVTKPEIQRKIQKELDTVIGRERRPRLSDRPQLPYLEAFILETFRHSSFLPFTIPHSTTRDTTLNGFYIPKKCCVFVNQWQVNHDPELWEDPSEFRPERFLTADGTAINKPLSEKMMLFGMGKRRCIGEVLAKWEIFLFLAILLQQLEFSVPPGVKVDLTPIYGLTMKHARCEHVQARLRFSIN
In words: CYP inhibition test (CYP1A2). In kind it is in vitro ADME. The following applies: pooled human hepatic microsome 0.2 mg protein/mL, 15 minutes, 37° C.; read-out: IC50 CYP1A2 (7-ethoxyresorufin O-deethylation). The text has this: Using commercially available pooled human hepatic microsome, and employing, as markers, 7-ethoxyresorufin O-deethylation (CYP1A2), tolbutamide methyl-hydroxylation (CYP2C9), mephenyloin 4′-hydroxylation (CYP2C19), dextromethorphan O-demethylation (CYP2D6), and terfenedine hydroxylation (CYP3A4) as typical substrate metabolism reactions of human main five CYP enzyme forms (CYP1A2, 2C9, 2C19, 2D6, 3A4), an inhibitory degree of each metabolite production amount by a compound of the present invention was assessed. […] After the centrifugation at 3000 rpm for 15 minutes, resorufin (CYP1A2 metabolite) in the supernatant was quantified by a multi-label counter and hydroxytolbutamide (CYP2C9 metabolite), 4′-hydroxymephenyloin (CYP2C19 metabolite), dextrorphan (CYP2D6 metabolite), and terfenadine alcohol metabolite (CYP3A4 metabolite) were quantified by LC/MS/MS. Addition of only DMSO being a solvent dissolving a compound to a reaction system was adopted as a control (100%), remaining activity (%) was calculated and IC50 was calculated by reverse presumption by a logistic model using a concentration and an inhibition rate.

Data set [1] concerns the target T2, human ether-a-go-go related gene (hERG) channel (Homo sapiens, UniProt Q12809).
T2 construct: expressed in transfected cells; host or cells: HEK293
In words: hERG test. The following applies: HEK293 cells expressing hERG channel, whole cell patch clamp, 10 minutes, concentration not given. In kind it is cell-based. An excerpt:
For the purpose of assessing risk of an electrocardiogram QT interval prolongation, effects on delayed rectifier K+ current (IKr), which plays an important role in the ventricular repolarization process, of the compound of the present invention was studied using HEK293 cells expressing human ether-a-go-go related gene (hERG) channel.
A cell was retained at a membrane potential of −80 mV by whole cell patch clamp method using an automated patch clamp system (PatchXpress 7000A, Axon Instruments Inc.) and leakage potential at −50 mV was generated. IKr induced by depolarization pulse stimulation at +40 mV for 2 seconds and, further, repolarization pulse stimulation at −50 mV for 2 seconds was recorded. […] From the recording IKr, an absolute value of the tail peak current was measured based on the current value at the resting membrane potential using an analysis software (DataXpress ver.1, Molecular Devices Corporation). Further, the % inhibition relative to the tail peak current before application of the compound of the present invention was calculated, and compared with the vehicle-applied group (0.1% dimethyl sulfoxide solution) to assess influence of the compound of the present invention on IKr.
In general terms: The hERG channel carries a current that helps repolarise heart muscle cells.

T2 sequence (Q12809 whole entry): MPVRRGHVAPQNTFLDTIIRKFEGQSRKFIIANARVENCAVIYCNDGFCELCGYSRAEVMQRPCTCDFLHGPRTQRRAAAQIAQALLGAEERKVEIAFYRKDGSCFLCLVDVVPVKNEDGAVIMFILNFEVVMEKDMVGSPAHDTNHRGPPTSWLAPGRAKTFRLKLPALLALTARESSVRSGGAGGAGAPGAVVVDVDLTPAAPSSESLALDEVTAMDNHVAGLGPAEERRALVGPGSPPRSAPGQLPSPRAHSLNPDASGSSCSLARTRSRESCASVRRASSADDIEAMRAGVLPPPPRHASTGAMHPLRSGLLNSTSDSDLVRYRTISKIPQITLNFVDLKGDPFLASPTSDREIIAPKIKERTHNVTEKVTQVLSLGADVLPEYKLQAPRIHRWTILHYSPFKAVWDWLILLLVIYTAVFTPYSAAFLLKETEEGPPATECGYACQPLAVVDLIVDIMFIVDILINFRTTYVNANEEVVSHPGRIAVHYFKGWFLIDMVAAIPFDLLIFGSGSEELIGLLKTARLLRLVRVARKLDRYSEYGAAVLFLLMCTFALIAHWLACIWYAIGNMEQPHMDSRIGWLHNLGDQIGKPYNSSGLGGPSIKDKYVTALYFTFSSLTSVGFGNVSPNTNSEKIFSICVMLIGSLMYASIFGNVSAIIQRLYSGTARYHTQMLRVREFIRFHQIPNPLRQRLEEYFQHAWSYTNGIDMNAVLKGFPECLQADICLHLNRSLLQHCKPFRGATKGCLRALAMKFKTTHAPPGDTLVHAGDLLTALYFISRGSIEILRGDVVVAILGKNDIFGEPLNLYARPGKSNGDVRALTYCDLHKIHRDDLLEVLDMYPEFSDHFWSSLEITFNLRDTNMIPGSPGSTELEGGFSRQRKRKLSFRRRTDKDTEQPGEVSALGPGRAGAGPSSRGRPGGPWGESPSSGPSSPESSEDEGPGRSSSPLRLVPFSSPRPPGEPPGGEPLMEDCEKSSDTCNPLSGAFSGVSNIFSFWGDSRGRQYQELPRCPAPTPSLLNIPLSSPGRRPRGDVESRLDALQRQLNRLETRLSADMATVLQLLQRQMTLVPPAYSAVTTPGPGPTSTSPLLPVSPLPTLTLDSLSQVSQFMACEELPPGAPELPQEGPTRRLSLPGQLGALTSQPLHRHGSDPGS

Usually IC50 stands for the midpoint of a concentration-inhibition curve. In the case of `C[C@@]1(c2cc(-c3cccnc3F)ccc2F)Cc2nccn2C(N)=N1` [Compound I-2], the IC50 on CYP1A2 was above 20 µM. In addition, the “% inhibition of IKr tail peak current” value in data set [1] is 12.3%.
